ChEMBL document CHEMBL4507276 (2021)

Experiments:
[1] = target: AP2-associated protein kinase 1 (Homo sapiens) (UniProt Q2M2I8); settings: Compound concentration 1000.0 nM
[2] = test system: Tyrosine-protein kinase ABL1 (Homo sapiens), P00519 [H396P]; settings: Compound concentration 1000.0 nM
[3] = target: Tyrosine-protein kinase ABL1 (Homo sapiens) (UniProt P00519); settings: Compound concentration 1000.0 nM
[4] = test system: ALK tyrosine kinase receptor (Homo sapiens), Q9UM73 [L1196M]; settings: Compound concentration 1000.0 nM
[5] = target: Bone morphogenetic protein receptor type-2 (Homo sapiens) (UniProt Q13873); settings: Compound concentration 1000.0 nM
[6] = target: Casein kinase I isoform gamma-2 (Homo sapiens) (UniProt P78368); settings: Compound concentration 1000.0 nM
[7] = target: Dual specificity tyrosine-phosphorylation-regulated kinase 1B (Homo sapiens) (UniProt Q9Y463); settings: Compound concentration 1000.0 nM
[8] = target: Epidermal growth factor receptor (Homo sapiens) (UniProt P00533); settings: Compound concentration 1000.0 nM
[9] = test system: Epidermal growth factor receptor (Homo sapiens), P00533 [L858R]; settings: Compound concentration 1000.0 nM
[10] = test system: Receptor-type tyrosine-protein kinase FLT3 (Homo sapiens), P36888 [K663Q]; settings: Compound concentration 1000.0 nM
[11] = target: Vascular endothelial growth factor receptor 3 (Homo sapiens) (UniProt P35916); settings: Compound concentration 1000.0 nM
[12] = target: T1, Interleukin-1 receptor-associated kinase 4 (Homo sapiens) (UniProt Q9NWZ3); settings: Compound concentration 1000.0 nM
T1 sequence (whole entry): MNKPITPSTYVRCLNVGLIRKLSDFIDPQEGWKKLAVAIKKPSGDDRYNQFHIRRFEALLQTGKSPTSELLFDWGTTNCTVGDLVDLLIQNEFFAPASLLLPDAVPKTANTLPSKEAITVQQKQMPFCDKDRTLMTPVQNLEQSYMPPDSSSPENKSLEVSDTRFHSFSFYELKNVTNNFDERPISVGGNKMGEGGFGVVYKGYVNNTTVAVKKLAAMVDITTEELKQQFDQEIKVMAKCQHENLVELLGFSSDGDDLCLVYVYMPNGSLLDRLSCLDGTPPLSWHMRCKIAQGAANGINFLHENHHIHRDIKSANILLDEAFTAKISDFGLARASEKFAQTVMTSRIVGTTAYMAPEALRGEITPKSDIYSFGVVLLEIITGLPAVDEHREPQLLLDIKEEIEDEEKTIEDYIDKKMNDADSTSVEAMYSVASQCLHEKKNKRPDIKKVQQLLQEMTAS

[13] = test system: Mast/stem cell growth factor receptor Kit (Homo sapiens), P10721 [V559D,T670I]; settings: Compound concentration 1000.0 nM
[14] = target: Serine/threonine-protein kinase LATS1 (Homo sapiens) (UniProt O95835); settings: Compound concentration 1000.0 nM
[15] = target: Serine/threonine-protein kinase LATS2 (Homo sapiens) (UniProt Q9NRM7); settings: Compound concentration 1000.0 nM
[16] = target: LIM domain kinase 2 (Homo sapiens) (UniProt P53671); settings: Compound concentration 1000.0 nM
[17] = target: Leucine-rich repeat serine/threonine-protein kinase 2 (Homo sapiens) (UniProt Q5S007); settings: Compound concentration 1000.0 nM
[18] = target: Maternal embryonic leucine zipper kinase (Homo sapiens) (UniProt Q14680); settings: Compound concentration 1000.0 nM
[19] = target: Serine/threonine-protein kinase 26 (Homo sapiens) (UniProt Q9P289); settings: Compound concentration 1000.0 nM
[20] = target: Cyclin-dependent kinase 2 homolog (Plasmodium falciparum (isolate 3D7)) (UniProt P61075); settings: Compound concentration 1000.0 nM
[21] = target: Phosphorylase b kinase regulatory subunit alpha, liver isoform (Homo sapiens) (UniProt P46019); settings: Compound concentration 1000.0 nM
[22] = test system: Phosphatidylinositol 4,5-bisphosphate 3-kinase catalytic subunit alpha isoform (Homo sapiens), P42336 [C420R]; settings: Compound concentration 1000.0 nM
[23] = target: Phosphatidylinositol 4-phosphate 5-kinase type-1 alpha (Homo sapiens) (UniProt Q99755); settings: Compound concentration 1000.0 nM
[24] = target: Protein kinase C eta type (Homo sapiens) (UniProt P24723); settings: Compound concentration 1000.0 nM
[25] = target: Serine/threonine-protein kinase 35 (Homo sapiens) (UniProt Q8TDR2); settings: Compound concentration 1000.0 nM
[26] = target: T2, TGF-beta receptor type-1 (Homo sapiens) (UniProt P36897); settings: Compound concentration 1000.0 nM
T2 sequence (whole entry): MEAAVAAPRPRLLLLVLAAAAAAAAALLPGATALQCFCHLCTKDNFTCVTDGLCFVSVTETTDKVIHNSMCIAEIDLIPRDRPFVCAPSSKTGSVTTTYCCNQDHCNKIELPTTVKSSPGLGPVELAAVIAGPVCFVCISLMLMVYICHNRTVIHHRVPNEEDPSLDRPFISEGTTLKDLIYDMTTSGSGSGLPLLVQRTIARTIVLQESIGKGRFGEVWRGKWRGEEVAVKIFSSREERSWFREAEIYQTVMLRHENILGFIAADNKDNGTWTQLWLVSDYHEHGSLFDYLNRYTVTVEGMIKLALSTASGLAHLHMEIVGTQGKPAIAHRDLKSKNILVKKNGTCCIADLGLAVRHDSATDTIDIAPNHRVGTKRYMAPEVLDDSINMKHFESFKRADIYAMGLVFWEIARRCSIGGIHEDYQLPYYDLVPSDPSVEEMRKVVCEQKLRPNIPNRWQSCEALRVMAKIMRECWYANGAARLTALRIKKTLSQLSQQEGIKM

[27] = target: Serine/threonine-protein kinase tousled-like 2 (Homo sapiens) (UniProt Q86UE8); settings: Compound concentration 1000.0 nM
[28] = target: Transient receptor potential cation channel subfamily M member 6 (Homo sapiens) (UniProt Q9BX84); settings: Compound concentration 1000.0 nM
[29] = target: Non-receptor tyrosine-protein kinase TYK2 (Homo sapiens) (UniProt P29597); settings: Compound concentration 1000.0 nM
[30] = target: Serine/threonine-protein kinase ULK3 (Homo sapiens) (UniProt Q6PHR2); settings: Compound concentration 1000.0 nM
[31] = target: Serine/threonine-protein kinase 32C (Homo sapiens) (UniProt Q86UX6); settings: Compound concentration 1000.0 nM
[32] = target: D(2) dopamine receptor (Homo sapiens) (UniProt P14416); settings: Compound concentration 10.0 uM

Chain of Serine/threonine-protein kinase 35 (Homo sapiens) (Q8TDR2 whole entry): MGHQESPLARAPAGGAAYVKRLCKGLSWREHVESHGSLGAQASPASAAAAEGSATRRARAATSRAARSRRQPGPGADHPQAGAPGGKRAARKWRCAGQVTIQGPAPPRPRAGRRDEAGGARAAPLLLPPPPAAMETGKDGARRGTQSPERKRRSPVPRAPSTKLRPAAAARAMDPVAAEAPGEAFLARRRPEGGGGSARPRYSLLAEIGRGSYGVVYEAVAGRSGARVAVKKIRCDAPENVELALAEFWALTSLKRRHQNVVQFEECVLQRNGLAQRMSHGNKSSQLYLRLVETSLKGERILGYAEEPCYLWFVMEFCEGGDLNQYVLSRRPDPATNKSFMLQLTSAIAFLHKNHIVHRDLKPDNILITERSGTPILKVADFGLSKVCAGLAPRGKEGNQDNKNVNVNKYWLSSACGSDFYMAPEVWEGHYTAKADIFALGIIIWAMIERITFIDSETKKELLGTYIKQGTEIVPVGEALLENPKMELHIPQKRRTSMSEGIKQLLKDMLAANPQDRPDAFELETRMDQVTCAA
Chain of Phosphorylase b kinase regulatory subunit alpha, liver isoform (Homo sapiens) (P46019 whole entry, canonical isoform): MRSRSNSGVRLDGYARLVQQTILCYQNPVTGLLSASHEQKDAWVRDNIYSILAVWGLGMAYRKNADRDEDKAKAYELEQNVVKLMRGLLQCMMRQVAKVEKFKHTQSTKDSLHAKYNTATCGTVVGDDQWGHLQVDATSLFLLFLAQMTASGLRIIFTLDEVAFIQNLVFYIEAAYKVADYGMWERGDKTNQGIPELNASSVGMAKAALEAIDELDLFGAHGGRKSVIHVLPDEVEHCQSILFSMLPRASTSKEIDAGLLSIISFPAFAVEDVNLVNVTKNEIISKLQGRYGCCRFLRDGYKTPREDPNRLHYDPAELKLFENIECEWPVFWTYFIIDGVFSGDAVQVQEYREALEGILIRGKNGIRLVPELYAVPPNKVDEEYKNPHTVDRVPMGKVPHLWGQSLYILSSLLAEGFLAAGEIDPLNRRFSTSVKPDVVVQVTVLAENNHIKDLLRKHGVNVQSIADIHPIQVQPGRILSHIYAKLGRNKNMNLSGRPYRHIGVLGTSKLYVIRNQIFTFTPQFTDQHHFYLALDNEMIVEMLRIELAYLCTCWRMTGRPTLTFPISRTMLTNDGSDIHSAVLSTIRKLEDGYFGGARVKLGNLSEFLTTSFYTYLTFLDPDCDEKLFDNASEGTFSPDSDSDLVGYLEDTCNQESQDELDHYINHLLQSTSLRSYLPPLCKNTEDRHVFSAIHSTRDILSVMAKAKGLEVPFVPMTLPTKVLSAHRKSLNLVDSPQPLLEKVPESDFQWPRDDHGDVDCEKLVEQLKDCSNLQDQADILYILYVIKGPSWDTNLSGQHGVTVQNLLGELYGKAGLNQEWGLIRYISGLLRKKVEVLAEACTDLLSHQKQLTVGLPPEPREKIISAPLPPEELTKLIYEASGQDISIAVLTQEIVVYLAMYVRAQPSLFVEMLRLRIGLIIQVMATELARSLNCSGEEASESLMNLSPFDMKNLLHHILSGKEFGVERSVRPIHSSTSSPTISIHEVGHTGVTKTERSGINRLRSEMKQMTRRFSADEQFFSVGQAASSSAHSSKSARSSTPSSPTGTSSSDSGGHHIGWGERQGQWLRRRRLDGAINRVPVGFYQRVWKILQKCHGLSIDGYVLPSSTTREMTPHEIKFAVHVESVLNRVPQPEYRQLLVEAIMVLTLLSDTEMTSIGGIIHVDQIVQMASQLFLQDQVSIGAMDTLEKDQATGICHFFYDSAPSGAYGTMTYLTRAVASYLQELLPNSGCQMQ
Chain of Leucine-rich repeat serine/threonine-protein kinase 2 (Homo sapiens) (Q5S007 whole entry): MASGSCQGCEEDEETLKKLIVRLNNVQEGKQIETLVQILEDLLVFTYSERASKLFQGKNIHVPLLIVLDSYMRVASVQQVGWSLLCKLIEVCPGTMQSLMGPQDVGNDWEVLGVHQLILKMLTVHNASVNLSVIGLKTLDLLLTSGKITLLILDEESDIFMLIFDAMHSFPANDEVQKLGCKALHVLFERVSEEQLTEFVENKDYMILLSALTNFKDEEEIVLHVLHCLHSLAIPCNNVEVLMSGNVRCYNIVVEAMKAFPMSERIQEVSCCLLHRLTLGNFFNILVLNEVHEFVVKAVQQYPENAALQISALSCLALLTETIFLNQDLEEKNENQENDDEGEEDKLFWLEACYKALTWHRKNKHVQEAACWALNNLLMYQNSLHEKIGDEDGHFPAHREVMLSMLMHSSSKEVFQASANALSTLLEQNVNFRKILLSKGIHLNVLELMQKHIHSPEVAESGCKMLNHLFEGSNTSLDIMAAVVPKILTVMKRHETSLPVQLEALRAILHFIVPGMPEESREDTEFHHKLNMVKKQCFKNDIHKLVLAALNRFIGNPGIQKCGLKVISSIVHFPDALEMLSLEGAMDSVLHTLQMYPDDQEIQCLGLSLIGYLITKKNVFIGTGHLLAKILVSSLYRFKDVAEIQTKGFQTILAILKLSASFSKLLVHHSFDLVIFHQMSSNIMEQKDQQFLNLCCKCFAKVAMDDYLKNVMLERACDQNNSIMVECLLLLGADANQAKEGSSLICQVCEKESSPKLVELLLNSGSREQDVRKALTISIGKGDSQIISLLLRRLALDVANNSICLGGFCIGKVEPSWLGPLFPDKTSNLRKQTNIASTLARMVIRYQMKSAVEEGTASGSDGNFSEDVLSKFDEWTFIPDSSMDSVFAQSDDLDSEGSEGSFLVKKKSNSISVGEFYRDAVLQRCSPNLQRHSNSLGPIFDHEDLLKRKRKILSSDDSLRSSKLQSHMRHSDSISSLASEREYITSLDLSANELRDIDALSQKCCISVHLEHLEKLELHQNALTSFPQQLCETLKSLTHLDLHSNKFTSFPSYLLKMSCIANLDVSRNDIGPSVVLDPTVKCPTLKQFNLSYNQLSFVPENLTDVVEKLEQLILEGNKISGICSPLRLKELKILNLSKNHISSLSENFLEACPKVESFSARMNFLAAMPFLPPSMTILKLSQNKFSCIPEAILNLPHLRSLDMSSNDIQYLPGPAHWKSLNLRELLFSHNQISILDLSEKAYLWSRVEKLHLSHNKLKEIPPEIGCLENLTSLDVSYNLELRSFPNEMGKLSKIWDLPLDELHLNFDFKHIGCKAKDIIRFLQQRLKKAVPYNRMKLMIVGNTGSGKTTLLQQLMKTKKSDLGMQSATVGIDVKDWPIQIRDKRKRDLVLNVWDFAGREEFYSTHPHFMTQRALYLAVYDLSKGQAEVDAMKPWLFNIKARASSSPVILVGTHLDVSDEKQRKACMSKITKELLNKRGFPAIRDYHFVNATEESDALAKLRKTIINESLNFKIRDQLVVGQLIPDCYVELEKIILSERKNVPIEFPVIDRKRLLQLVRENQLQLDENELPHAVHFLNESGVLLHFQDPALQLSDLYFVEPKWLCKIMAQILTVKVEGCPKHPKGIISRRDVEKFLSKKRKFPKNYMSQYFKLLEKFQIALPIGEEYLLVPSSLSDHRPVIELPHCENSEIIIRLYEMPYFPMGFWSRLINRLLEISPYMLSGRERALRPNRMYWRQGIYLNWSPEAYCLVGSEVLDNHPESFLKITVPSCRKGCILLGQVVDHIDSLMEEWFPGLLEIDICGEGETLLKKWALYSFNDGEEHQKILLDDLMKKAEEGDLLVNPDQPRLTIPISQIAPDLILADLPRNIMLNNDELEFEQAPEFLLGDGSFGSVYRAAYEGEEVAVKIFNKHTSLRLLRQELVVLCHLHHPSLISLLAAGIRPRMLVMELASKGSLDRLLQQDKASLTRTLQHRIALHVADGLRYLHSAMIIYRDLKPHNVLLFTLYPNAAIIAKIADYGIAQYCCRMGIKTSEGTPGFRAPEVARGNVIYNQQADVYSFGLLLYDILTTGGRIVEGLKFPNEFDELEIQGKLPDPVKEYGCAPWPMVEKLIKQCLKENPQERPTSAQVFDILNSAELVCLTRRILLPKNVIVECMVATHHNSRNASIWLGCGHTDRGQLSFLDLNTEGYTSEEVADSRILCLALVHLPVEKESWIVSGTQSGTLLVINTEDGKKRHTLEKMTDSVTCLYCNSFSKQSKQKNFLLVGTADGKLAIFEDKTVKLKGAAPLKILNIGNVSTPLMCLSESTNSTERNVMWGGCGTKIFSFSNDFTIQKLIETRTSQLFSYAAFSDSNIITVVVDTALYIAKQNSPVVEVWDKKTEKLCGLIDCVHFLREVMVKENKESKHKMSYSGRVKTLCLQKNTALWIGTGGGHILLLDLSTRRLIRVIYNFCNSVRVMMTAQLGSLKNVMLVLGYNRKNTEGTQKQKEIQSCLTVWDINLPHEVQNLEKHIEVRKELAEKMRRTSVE
Chain of Serine/threonine-protein kinase ULK3 (Homo sapiens) (Q6PHR2 whole entry): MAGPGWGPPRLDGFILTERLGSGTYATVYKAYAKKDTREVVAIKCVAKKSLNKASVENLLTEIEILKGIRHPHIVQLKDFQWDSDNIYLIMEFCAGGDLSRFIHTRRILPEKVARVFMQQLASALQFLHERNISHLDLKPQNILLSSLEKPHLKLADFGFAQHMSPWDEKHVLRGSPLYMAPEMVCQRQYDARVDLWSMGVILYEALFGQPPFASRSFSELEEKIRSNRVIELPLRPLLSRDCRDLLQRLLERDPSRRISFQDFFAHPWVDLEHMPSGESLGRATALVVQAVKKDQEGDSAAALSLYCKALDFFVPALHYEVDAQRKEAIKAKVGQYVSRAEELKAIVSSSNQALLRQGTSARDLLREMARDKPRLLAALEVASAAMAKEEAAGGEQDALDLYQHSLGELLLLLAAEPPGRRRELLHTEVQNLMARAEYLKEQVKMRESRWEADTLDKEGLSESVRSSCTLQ
Chain of Cyclin-dependent kinase 2 homolog (Plasmodium falciparum (isolate 3D7)) (P61075 whole entry, canonical isoform): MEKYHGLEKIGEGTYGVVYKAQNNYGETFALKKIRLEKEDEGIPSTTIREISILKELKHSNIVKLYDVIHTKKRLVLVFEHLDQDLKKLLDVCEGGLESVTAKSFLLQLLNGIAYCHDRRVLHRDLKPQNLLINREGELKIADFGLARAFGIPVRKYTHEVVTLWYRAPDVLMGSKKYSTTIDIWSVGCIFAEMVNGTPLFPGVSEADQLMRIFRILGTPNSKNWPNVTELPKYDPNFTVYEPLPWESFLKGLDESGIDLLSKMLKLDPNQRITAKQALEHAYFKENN

SMILES | residual activity [1] | residual activity [2] | residual activity [3] | residual activity [4] | residual activity [5] | residual activity [6] | residual activity [7] | residual activity [8] | residual activity [9] | residual activity [10] | residual activity [11] | residual activity [12] | residual activity [13] | residual activity [14] | residual activity [15] | residual activity [16] | residual activity [17] | residual activity [18] | residual activity [19] | residual activity [20] | further results
CN(C)C(=O)Cn1cc(-c2nc(C3(c4ccc(-c5cnc(N)nc5)cc4)CC3)no2)cn1 [BI 0153] | 100% | 100% | 93% | 92% | 93% | 82% | 66% | 93% | 86% | 100% | 95% | 84% | 100% | 100% | 46% | 85% | 100% | 92% | 89% | 100% | residual activity [21]: 91%; residual activity [22]: 95%; residual activity [23]: 95%; residual activity [24]: 91%; residual activity [25]: 94%; residual activity [26]: 97%; residual activity [27]: 100%; residual activity [28]: 86%; residual activity [29]: 100%; residual activity [30]: 68%; residual activity [31]: 100%; inhibition [32]: 16.1%
CN(C)C(=O)Cn1cc(-c2nc([C@@](C)(c3ccc(-c4cnc(N)nc4)cc3)C3CC3)no2)cn1 [BI 665915] | 100% | 80% | 84% | 90% | 94% | 100% | 98% | 93% | 100% | 94% | 88% | 85% | 81% | 93% | 74% | 85% | 74% | 87% | 97% | 0% | residual activity [21]: 80%; residual activity [22]: 73%; residual activity [23]: 90%; residual activity [24]: 100%; residual activity [25]: 88%; residual activity [26]: 100%; residual activity [27]: 100%; residual activity [28]: 78%; residual activity [29]: 75%; residual activity [30]: 86%; residual activity [31]: 88%; inhibition [32]: 13.6%
